{"source": "patent US6177409A", "about": "“Method for the site specific synthesis of novel 3-hydroxypyridin-4(1H)ons derivatives from aminomonosaccharides or aminoitols, products obtained by this method and their applications” (priority 1996, dated 2001)", "key": {"in vivo": {"assay": "in vivo", "conditions": "mouse, in vivo", "experimental": "(§1) The samples are put in a solution either in water or in a mixture of water-DMSO (3:2; v/v) so as to obtain solutions of varying concentrations,either lower than or equal to 130 g·L^-1; the volumes injected are calculated on the basis of 0.2 mL for a mouse body weight of 20 g.\n(§2) The toxicity is evaluated starting from aqueous solutions, either buffered or not with NaH2 PO4 or else with Na2 HPO4, or else after addition of a stoichiometric quantity of NaHCO3.\n(§3) The 2-methyl-3-hydroxypyridine-4(1H)-one derivatives of glycerol (14), of xylitol (17), of mono-acetone xylose (12) and of solketal (11) were injected by I. V. route.\n(§4) The 2-methyl-3-hydroxypyridine-4(1H)-one compound of diacetone xylitol (10) was injected by I. P. route."}, "mice": {"test_system": "mice", "assay": "in vivo", "experimental": "as §1, §2, §3, §4"}, "[1]": {"conditions": "male and female mice, I.V., (maximum solubility)"}}, "data": [{"molecule": "Cc1c(O)c(=O)ccn1CC1OC(C)(C)OC1C1COC(C)(C)O1", "note": "(centres unmarked) [Compound 10, 1-(2',3': 4',5'-di-O-isopropylidene-xylityl)-2-methyl-3-hydroxypyridine-4(1H)-one]", "values": [{"measurement": "LD50", "setting": "in vivo; ip, LD50", "result": "> 650", "unit": "mg/kg"}, {"measurement": "toxicity compared with L1", "setting": "mice; mice", "result": "weaker toxicity than L1"}, {"measurement": "Macroscopic lesions of visceral organs", "setting": "mice; mouse, in vivo, ip", "result": "No visceral organ presented macroscopic lesions"}, {"measurement": "Mortality (number of mice)", "setting": "mice; mouse, in vivo, ip, 325 mg/kg", "result": 0}, {"measurement": "Secondary effects", "setting": "mice; mouse, in vivo, ip, 325 mg/kg", "result": "none (5/5)"}, {"measurement": "Mortality (number of mice)", "setting": "mice; mouse, in vivo, ip, 650 mg/kg", "result": 0}, {"measurement": "Secondary effects", "setting": "mice; mouse, in vivo, ip, 650 mg/kg", "result": "none (5/5)"}, {"measurement": "solubility at the doses studied", "setting": "Solubility in water; acute toxicity doses, compared with L1", "result": "less soluble at the doses studied"}, {"measurement": "solubility in water", "setting": "Solubility in water; water", "result": "weak"}]}, {"molecule": "Cc1c(O)c(=O)ccn1CC1COC(C)(C)O1", "note": "(centres unmarked) [Compound 11, 1-(2',3'-O-isopropylidene-glyceryl)-2-methyl-3-hydroxypyridine-4(1H)-one]", "values": [{"measurement": "LD50", "setting": "in vivo; iv, LD50 ± SD", "result": "817 ± 75", "unit": "mg/kg"}, {"measurement": "toxicity compared with L1", "setting": "mice; mice", "result": "toxicity higher than that of L1"}, {"measurement": "LD50 ± SD", "setting": "mice; mouse, in vivo, iv", "result": "745 ± 84", "unit": "mg/kg"}, {"measurement": "neurophysiological effects", "setting": "mice; mouse, in vivo, iv", "result": "induces adverse neurophysiological effects"}, {"measurement": "Mortality (number of mice)", "setting": "mice; mouse, in vivo, iv, 500 mg/kg", "result": 0}, {"measurement": "Mortality times", "setting": "mice; mouse, in vivo, iv, 650 mg/kg", "result": 3, "unit": "min"}, {"measurement": "Mortality (number of mice)", "setting": "mice; mouse, in vivo, iv, 800 mg/kg", "result": 2}, {"measurement": "Mortality (number of mice)", "setting": "mice; mouse, in vivo, iv, 1000 mg/kg", "result": 4}, {"measurement": "Secondary effects", "setting": "mice; mouse, in vivo, iv, 1000 mg/kg", "result": "1 min. convulsive phase followed by 10 min. of drop in spontaneous activity (10/10)"}, {"measurement": "Mortality (number of mice)", "setting": "mice; mouse, in vivo, iv, 1300 mg/kg", "result": 5}, {"measurement": "Mortality times", "setting": "mice; mouse, in vivo, iv, 1300 mg/kg", "result": "30-90"}, {"measurement": "Secondary effects", "setting": "mice; mouse, in vivo, iv, 1300 mg/kg", "result": "death preceded by a marked convulsive phase (10/10)"}]}, {"molecule": "Cc1c(O)c(=O)ccn1C[C@H]1O[C@@H]2OC(C)(C)O[C@@H]2[C@H]1O", "note": "[Compound 12, 1-(1',2'-O-isopropylidene-α-D-xylofuranose-5-yl)-2-methyl-3-hydroxypyridine-4-(1H)-one]", "values": [{"measurement": "LD10", "setting": "mice; female mice, I.V.", "result": 1000, "unit": "mg/kg"}, {"measurement": "Acute toxicity in mice", "setting": "mice; male mice, I.V.", "result": "totally innocuous at 1300 mg.kg^-1"}, {"measurement": "toxicity compared with L1", "setting": "mice; mice", "result": "less toxic than L1"}, {"measurement": "first toxic effects (=LD10)", "setting": "mice; mice, I.V.", "result": 1300, "unit": "mg/kg"}, {"measurement": "Cause of death", "setting": "mice; mouse, in vivo, iv, 1000 mg/kg", "result": "respiratory deficiency"}, {"measurement": "Mortality times", "setting": "mice; mouse, in vivo, iv, 1000 mg/kg", "result": 4, "unit": "min"}, {"measurement": "Mortality times", "setting": "mice; mouse, in vivo, iv, 1300 mg/kg", "result": "360 to 1080", "unit": "min"}]}, {"molecule": "Cc1c(O)c(=O)ccn1CC(O)CO", "note": "(centres unmarked) [Compound 14, 1-glyceryl-2-methyl-3-hydroxypyridine-4(1H)-one]", "values": [{"measurement": "Mortality (number of mice)", "setting": "mice; female, I.V., 1300 mg/kg, water 60/DMSO 40, 5 mice", "result": 0}, {"measurement": "Mortality (number of mice)", "setting": "mice; female, I.V., 1300 mg/kg, water, 5 mice", "result": 0}, {"measurement": "Acute toxicity in mice", "setting": "mice; [1]", "result": "totally innocuous at 1300 mg.kg^-1"}, {"measurement": "Mortality (number of mice)", "setting": "mice; male, I.V., 1300 mg/kg, water 60/DMSO 40, 5 mice", "result": 0}, {"measurement": "Mortality (number of mice)", "setting": "mice; male, I.V., 1300 mg/kg, water, 5 mice", "result": 0}, {"measurement": "toxicity at 1300 mg/kg", "setting": "mice; mice, I.V., 1300 mg.kg^-1, running text", "result": "non-toxic"}, {"measurement": "solubility", "setting": "Solubility in water; water", "result": "> 130", "unit": "mg/mL"}]}, {"molecule": "Cc1c(O)c(=O)ccn1CC(O)C(O)C(O)CO", "note": "(centres unmarked) [Compound 17, 1-xylityl-2-methyl-3-hydroxypyridine-4(1H)-one]", "values": [{"measurement": "Acute toxicity in mice", "setting": "mice; [1]", "result": "totally innocuous at 1000 mg.kg^-1"}, {"measurement": "toxicity compared with L1", "setting": "mice; mice", "result": "less toxic than L1"}, {"measurement": "first toxic effects (=LD10)", "setting": "mice; mice, I.V.", "result": 1300, "unit": "mg/kg"}, {"measurement": "Onset of significant decrease in spontaneous activity after injection", "setting": "mice; mouse, in vivo, iv", "result": "~2", "unit": "h"}, {"measurement": "Mortality (number of mice)", "setting": "mice; mouse, in vivo, iv, 650 mg/kg", "result": 0}, {"measurement": "Secondary effects", "setting": "mice; mouse, in vivo, iv, 650 mg/kg", "result": "none (5/5)"}, {"measurement": "Mortality (number of mice)", "setting": "mice; mouse, in vivo, iv, 1000 mg/kg", "result": 0}, {"measurement": "Secondary effects", "setting": "mice; mouse, in vivo, iv, 1000 mg/kg", "result": "none (5/5)"}, {"measurement": "Mortality (number of mice)", "setting": "mice; mouse, in vivo, iv, 1300 mg/kg", "result": 0}]}, {"molecule": "Cc1c(O)c(=O)ccn1C", "note": "[Compound L1, 1.2-dimethyl-3-hydroxypyridine-4(1H)-one, reference compound]", "values": [{"measurement": "mortality", "setting": "in vivo; 1300 mg/kg", "result": 100, "unit": "%"}, {"measurement": "Secondary effects", "setting": "mice; mouse, in vivo, ip, 650 mg/kg, pH 7", "result": "spontaneous decrease in activity xx min. before death (5/5)"}, {"measurement": "Secondary effects", "setting": "mice; mouse, in vivo, iv, 325 mg/kg, pH 2.5", "result": "irritation at injection, spontaneous decrease in activity 2-4 min. (5/5)"}]}]}
